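Each compound was tested at five concentrations against cells in 96-well plates for 48 hours. TGI denotes the concentration required for complete inhibition of growth.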
Columns and labels:
Test in all cases: growth of human tumour cells (NCI), 48 h
[1] = tested on: NCI-H522 lung
[2] = tested on: SK-MEL-5 melanoma
[3] = tested on: TK-10 renal
[4] = tested on: HL-60(TB) leukemia
[5] = tested on: A498 renal
[6] = tested on: SF-539 CNS
[7] = tested on: SK-MEL-28 melanoma
[8] = tested on: SW-620 colon
[9] = tested on: SK-OV-3 ovarian
[10] = tested on: SN12C renal
[11] = tested on: HOP-62 NSCLC
[12] = tested on: MOLT-4 leukemia
[13] = tested on: A549 NSCLC
[14] = tested on: M19-MEL melanoma
[15] = tested on: 786-0 renal
[16] = tested on: DLD-1 colon
[17] = tested on: HCT-15 colon
[18] = tested on: HT29 colon
[19] = tested on: RXF 393 renal
[20] = tested on: KM20L2 colon
[21] = tested on: HOP-18 NSCLC
[22] = tested on: SNB-78 CNS
[23] = tested on: OVCAR-4 ovarian
[24] = tested on: HCT-116 colon
[25] = tested on: LXFL 529 NSCLC
[26] = tested on: ACHN renal
[27] = tested on: SK-MEL-2 melanoma
[28] = tested on: OVCAR-3 ovarian
[29] = tested on: COLO 205 colon
[30] = tested on: LOX IMVI melanoma
[31] = tested on: SNB-75 CNS
[32] = tested on: SF-268 CNS
[33] = tested on: UO-31 renal
[34] = tested on: MALME-3M melanoma
[35] = tested on: K-562 leukemia
[36] = tested on: EKVX NSCLC
[37] = tested on: U251 CNS
[38] = tested on: OVCAR-5 ovarian
[39] = tested on: OVCAR-8 ovarian
[40] = tested on: UACC-62 melanoma
[41] = tested on: NCI-H460 lung
[42] = tested on: NCI-H23 lung
[43] = tested on: DMS 273 small cell lung
[44] = tested on: UACC-257 melanoma
[45] = tested on: RPMI-8226 leukemia
[46] = tested on: DMS 114 small cell lung
[47] = tested on: M14 melanoma
[48] = tested on: SF-295 CNS
[49] = tested on: IGROV1 ovarian
[50] = tested on: KM12 colon
[51] = tested on: CCRF-CEM leukemia
[52] = tested on: SNB-19 CNS
[53] = tested on: SR leukemia
[54] = tested on: XF 498 CNS
[55] = tested on: HCC-2998 colon
[56] = tested on: NCI-H226 lung
[57] = tested on: HOP-92 NSCLC

With `CN(C)CC(C)(C)C(/C=C/c1ccccc1)=N\Nc1ccccc1` the TGI [1] was 23.9 µM, the TGI [2] was 20.7 µM and the TGI [3] was 3.48 µM. The TGI [4] was 7.49 µM, the TGI [5] was 37.9 µM and the TGI [6] was 0.897 µM. It also gave a TGI [7] of 10.8 µM, a TGI [8] of 10.4 µM and a TGI [9] of 38.8 µM. For the same compound, the TGI [10] was 17.6 µM, the TGI [11] was 64.7 µM and the TGI [12] was 17.3 µM. For the same compound, the TGI [13] was 4.19 µM, the TGI [14] was 22.3 µM and the TGI [15] was 14.8 µM. The TGI [16] was 11.6 µM, the TGI [17] was 2.46 µM and the TGI [18] was 27.9 µM. It also gave a TGI [19] of 32.8 µM, a TGI [20] of 0.0605 µM and a TGI [21] of 73.1 µM. It also gave a TGI [22] of 26.8 µM, a TGI [23] of 17.9 µM and a TGI [24] of 15.7 µM. For the same compound, the TGI [25] was 0.446 µM, the TGI [26] was 1.25 µM and the TGI [27] was 31 µM. The TGI [28] was 14 µM, the TGI [29] was 11.3 µM and the TGI [30] was 15.7 µM. The TGI [31] was 46.8 µM, the TGI [32] was 15.4 µM and the TGI [33] was 0.843 µM. For the same compound, the TGI [34] was 26.6 µM, the TGI [35] was 0.828 µM and the TGI [36] was 16.4 µM. The TGI [37] was 13.4 µM, the TGI [38] was 2 µM and the TGI [39] was 27.5 µM. It also gave a TGI [40] of 1.07 µM, a TGI [41] of 17.8 µM and a TGI [42] of 23.5 µM. It also gave a TGI [43] of 11.2 µM, a TGI [44] of 23.4 µM and a TGI [45] of 19.4 µM. For the same compound, the TGI [46] was 21.8 µM, the TGI [47] was 20.3 µM and the TGI [48] was 0.907 µM. For the same compound, the TGI [49] was 17.9 µM, the TGI [50] was 26.6 µM and the TGI [51] was 16.2 µM. For the same compound, the TGI [52] was > 100 µM.

With `C#C[C@@]1(O)CCCC2=CC(=O)C[C@]21C` the TGI [1] was > 100 µM, the TGI [2] was > 100 µM and the TGI [3] was > 100 µM. The TGI [4] was > 100 µM, the TGI [53] was > 100 µM and the TGI [6] was > 100 µM. For the same compound, the TGI [54] was > 100 µM, the TGI [7] was > 100 µM and the TGI [8] was > 100 µM. For the same compound, the TGI [9] was > 100 µM, the TGI [55] was > 100 µM and the TGI [10] was > 100 µM. The TGI [12] was > 100 µM, the TGI [13] was > 100 µM and the TGI [14] was > 100 µM. The TGI [15] was > 100 µM, the TGI [16] was > 100 µM and the TGI [56] was > 100 µM. For the same compound, the TGI [17] was > 100 µM, the TGI [18] was > 100 µM and the TGI [19] was > 100 µM. For the same compound, the TGI [21] was > 100 µM, the TGI [25] was > 100 µM and the TGI [26] was > 100 µM. For the same compound, the TGI [27] was > 100 µM, the TGI [28] was > 100 µM and the TGI [29] was > 100 µM. The TGI [32] was > 100 µM, the TGI [33] was > 100 µM and the TGI [34] was > 100 µM. For the same compound, the TGI [35] was > 100 µM, the TGI [36] was > 100 µM and the TGI [37] was > 100 µM. The TGI [38] was > 100 µM, the TGI [39] was > 100 µM and the TGI [41] was > 100 µM. The TGI [42] was > 100 µM, the TGI [44] was > 100 µM and the TGI [57] was > 100 µM. For the same compound, the TGI [45] was > 100 µM, the TGI [46] was > 100 µM and the TGI [47] was > 100 µM. For the same compound, the TGI [48] was > 100 µM, the TGI [49] was > 100 µM and the TGI [50] was > 100 µM. The TGI [51] was > 100 µM and the TGI [52] was > 100 µM.

Source: PubChem BioAssay (NCI)
